Reference: patent US20260015350A1, “AZAQUINAZOLINE PAN-KRAS INHIBITORS” (Mirati Therapeutics, Inc., priority 2022, published 2026)

Legend:
KRas^G12D = molecular target: T1, KRas^G12D (Homo sapiens, UniProt P01116, G12D); experiment: KRas binding assay (TR-FRET tracer displacement), KRas G12D
T1 construct: Biotinylated KRas (corresponding to amino acids 1-169, produced at Accelegan Inc.); biotin (biotinylated); purchased Accelegan Inc

KRas^G12R = molecular target: T2, KRas^G12R (Homo sapiens, UniProt P01116, G12R); experiment: KRas binding assay (TR-FRET tracer displacement), KRas G12R
T2 construct: Biotinylated KRas (corresponding to amino acids 1-169, produced at Accelegan Inc.); biotin (biotinylated); purchased Accelegan Inc
T2 sequence (P01116 1-169 isoform P01116-2 G12R): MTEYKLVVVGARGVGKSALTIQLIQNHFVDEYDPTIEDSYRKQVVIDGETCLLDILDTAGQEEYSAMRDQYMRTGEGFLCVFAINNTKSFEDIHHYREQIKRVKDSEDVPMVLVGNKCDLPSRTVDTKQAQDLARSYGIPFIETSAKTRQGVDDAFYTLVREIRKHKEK

KRas^G12V = molecular target: T3, KRas^G12V (Homo sapiens, UniProt P01116, G12V); experiment: KRas binding assay (TR-FRET tracer displacement), KRas G12V
T3 construct: Biotinylated KRas (corresponding to amino acids 1-169, produced at Accelegan Inc.); biotin (biotinylated); purchased Accelegan Inc
T3 sequence (P01116 1-169 isoform P01116-2 G12V): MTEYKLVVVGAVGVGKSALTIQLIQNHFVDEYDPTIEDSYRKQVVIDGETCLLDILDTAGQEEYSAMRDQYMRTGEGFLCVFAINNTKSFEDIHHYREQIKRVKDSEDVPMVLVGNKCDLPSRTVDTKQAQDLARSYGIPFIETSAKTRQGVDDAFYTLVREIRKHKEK

[1] = test system: KRas-mediated phosphorylation of ERK in MKN1 cells; experiment: Inhibition of KRas-mediated phosphorylation of ERK (Cisbio HTRF pERK), MKN1 cells; format: cell-based; conditions: Homo sapiens, MKN-1
In short: (§1)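 HTRF pERK read-out; 6,000 cells/well, RPMI_10% FBS, overnight 37° C./5% CO2; 4 h covered incubation at RT before reading.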

[2] = test system: KRas-mediated phosphorylation of ERK in PSN1 cells; experiment: Inhibition of KRas-mediated phosphorylation of ERK (Cisbio HTRF pERK), PSN1 cells; format: cell-based; conditions: Homo sapiens
In short: as §1

[3] = test system: KRas-mediated phosphorylation of ERK in AsPC-1 cells; experiment: Inhibition of KRas-mediated phosphorylation of ERK (Cisbio HTRF pERK), AsPC-1 cells; format: cell-based; conditions: Homo sapiens, ASPC1, AsPC-1 cells; HTRF pERK
In short: (§2)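 6,000 cells/well; cpd 10 uM top, 3-fold x10, 0.8% DMSO final; 3 hr incubation; Min ctrl Trametinib 0.2 uM; lysis 40 min 4° C shaking; d2 + Cryptate Ab mix, 2 hr RT; HTRF read.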

[4] = test system: KRas-mediated phosphorylation of ERK in H727 cells; experiment: Inhibition of KRas-mediated phosphorylation of ERK (Cisbio HTRF pERK), H727 cells; format: cell-based; conditions: Homo sapiens, NCI-H727, H727 cells; HTRF pERK
In short: as §2

[5] = test system: KRas-mediated phosphorylation of ERK in A549 cells; experiment: Inhibition of KRas-mediated phosphorylation of ERK (Cisbio HTRF pERK), A549 cells; format: cell-based; conditions: Homo sapiens, HTRF pERK
In short: (§3)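 HTRF readout of phospho-ERK in cell lysates after 3 hrs of compound exposure. Dosing: 10 uM top, 3-fold steps, 10 doses, final DMSO 0.8%. Min control: 0.2 uM Trametinib. Lysis ran 40 mins at 4° C, and antibody detection 2 hrs at room temperature.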

[6] = test system: KRas-mediated phosphorylation of ERK in H460 cells; experiment: Inhibition of KRas-mediated phosphorylation of ERK (Cisbio HTRF pERK), H460 cells; format: cell-based; conditions: Homo sapiens, NCI-H460, HTRF pERK
In short: as §2

[7] = test system: KRas-mediated phosphorylation of ERK in HCT116 cells; experiment: Inhibition of KRas-mediated phosphorylation of ERK (Cisbio HTRF pERK), HCT116 cells; format: cell-based; conditions: Homo sapiens, HCT-116, HTRF pERK
In short: as §3

[8] = test system: KRas-mediated phosphorylation of ERK in H358 cells; experiment: Inhibition of KRas-mediated phosphorylation of ERK (Cisbio HTRF pERK), H358 cells; format: cell-based; conditions: Homo sapiens, NCI-H358, HTRF pERK
In short: as §2

[9] = test system: KRas-mediated phosphorylation of ERK in H2009 cells; experiment: Inhibition of KRas-mediated phosphorylation of ERK (Cisbio HTRF pERK), H2009 cells; format: cell-based; conditions: Homo sapiens, NCI-H2009
Procedure: Inhibition of KRas Phosphorylation of ERK (HTRF) by Exemplary Compounds of Formula (I)
Cisbio HTRF Advanced PERK Assay Catalog #64AERPEH
1. To harvest cells from flask using 0.05% Trypsin/EDTA solution. Add 10 mL of media to stop trypsinizing. Pipette the cells into a conical bottom 50 mL centrifuge tube and centrifuge 5 min×1000 rpm.
2. Re-suspend the cell pellet in media, take a cell count, and then adjust the cell density using fresh media.
3. Seed 6,000 cells into cell culture plate with 50 μL media. […]
4. Incubate cell plate overnight in a 37° C., 5% CO2 incubator.
1. Use Tecan to complete the compound addition. Compounds start from 10 uM top, 3-fold dilution, and 10 doses. The final DMSO concentration is 0.8%. Dispensed 0.2 uM Trametinib as Min control.
2. Incubate cell plate for 3 hrs in the incubator.
Detection with Cisbio pERK HTRF Kit
1. Dilute 1 volume of 4× lysis buffer with 3 volumes of deionized water. Then, add 100× the blocking reagent. Keep lysis buffer on the ice.
2. At the end of the compound treatment, flick-off the media.
3. Add 35 μL of lysis buffer per well using a Multidrop Combi. Then place on a plate agitator shaking at 300 rpm at 4° C. for 40 mins.
4. Make up the HTRF antibody buffer. For each assay plate, mix 50 μL of d2-conjugate antibody with 950 μL of detection buffer. Similarly, mix 50 μL of Cryptate antibody with 950 μL of detection buffer. Then mix the two diluted antibodies together.
5. Dispense 3.4 μL the antibody buffer to wells of an empty assay plate. Seal the plate and centrifuge plate 30 sec×1000 rpm.
6. At the end of the 4° C. lysis, centrifuge the lysate plates 3 mins×1500 rpm.
7. Use the Bravo to transfer 13.6 μL of lysate from cell culture plate to assay plate. Then incubate assay plate for 2 hrs at room temperature.
8. At the end of incubation, read plate on the Envision after centrifuging plate 30 sec×1000 rpm.

KRas^WT = molecular target: T4, KRas^WT (Homo sapiens, UniProt P01116); experiment: KRas binding assay (TR-FRET tracer displacement), KRas WT; conditions: TR-FRET tracer displacement, KRas WT
T4 construct: Biotinylated KRas (corresponding to amino acids 1-169, produced at Accelegan Inc.); biotin (biotinylated); purchased Accelegan Inc
T4 sequence (P01116 1-169 isoform P01116-2): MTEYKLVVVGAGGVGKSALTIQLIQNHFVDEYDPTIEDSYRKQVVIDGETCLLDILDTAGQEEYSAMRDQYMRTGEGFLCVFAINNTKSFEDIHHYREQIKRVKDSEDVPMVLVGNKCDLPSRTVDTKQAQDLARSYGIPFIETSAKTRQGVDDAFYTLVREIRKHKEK

KRas^G12C = molecular target: T5, KRas^G12C (Homo sapiens, UniProt P01116, G12C); experiment: KRas binding assay (TR-FRET tracer displacement), KRas G12C; conditions: TR-FRET tracer displacement, KRas G12C
T5 construct: Biotinylated KRas (corresponding to amino acids 1-169, produced at Accelegan Inc.); biotin (biotinylated); purchased Accelegan Inc
T5 sequence (P01116 1-169 isoform P01116-2 G12C): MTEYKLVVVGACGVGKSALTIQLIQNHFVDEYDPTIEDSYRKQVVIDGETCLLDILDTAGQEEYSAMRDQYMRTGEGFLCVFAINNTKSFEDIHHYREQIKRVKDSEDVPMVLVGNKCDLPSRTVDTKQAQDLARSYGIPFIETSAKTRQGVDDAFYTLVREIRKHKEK

KRas^G12S = molecular target: T6, KRas^G12S (Homo sapiens, UniProt P01116, G12S); experiment: KRas binding assay (TR-FRET tracer displacement), KRas G12S; conditions: TR-FRET tracer displacement, KRas G12S
T6 construct: Biotinylated KRas (corresponding to amino acids 1-169, produced at Accelegan Inc.); biotin (biotinylated); purchased Accelegan Inc
T6 sequence (P01116 1-169 isoform P01116-2 G12S): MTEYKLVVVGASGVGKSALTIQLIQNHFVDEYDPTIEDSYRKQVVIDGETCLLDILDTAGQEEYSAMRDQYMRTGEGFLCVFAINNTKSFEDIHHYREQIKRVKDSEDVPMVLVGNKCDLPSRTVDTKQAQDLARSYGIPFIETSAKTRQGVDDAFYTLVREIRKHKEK

KRas^G12A = molecular target: T7, KRas^G12A (Homo sapiens, UniProt P01116, G12A); experiment: KRas binding assay (TR-FRET tracer displacement), KRas G12A; conditions: TR-FRET tracer displacement, KRas G12A
T7 construct: Biotinylated KRas (corresponding to amino acids 1-169, produced at Accelegan Inc.); biotin (biotinylated); purchased Accelegan Inc
T7 sequence (P01116 1-169 isoform P01116-2 G12A): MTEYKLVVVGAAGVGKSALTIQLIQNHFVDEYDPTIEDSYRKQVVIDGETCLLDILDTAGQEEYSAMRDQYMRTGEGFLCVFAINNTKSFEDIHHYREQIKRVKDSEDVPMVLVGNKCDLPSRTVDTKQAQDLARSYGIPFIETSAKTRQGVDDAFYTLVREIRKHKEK

KRas^G13D = molecular target: T8, KRas^G13D (Homo sapiens, UniProt P01116, G13D); experiment: KRas binding assay (TR-FRET tracer displacement), KRas G13D; conditions: TR-FRET tracer displacement, KRas G13D
T8 construct: Biotinylated KRas (corresponding to amino acids 1-169, produced at Accelegan Inc.); biotin (biotinylated); purchased Accelegan Inc
T8 sequence (P01116 1-169 isoform P01116-2 G13D): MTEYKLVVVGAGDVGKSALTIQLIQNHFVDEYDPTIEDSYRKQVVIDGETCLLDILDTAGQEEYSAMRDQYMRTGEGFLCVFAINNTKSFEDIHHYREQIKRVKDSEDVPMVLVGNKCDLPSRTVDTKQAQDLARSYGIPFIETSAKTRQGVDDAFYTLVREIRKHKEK

KRas^Q61H = molecular target: T9, KRas^Q61H (Homo sapiens, UniProt P01116, Q61H); experiment: KRas binding assay (TR-FRET tracer displacement), KRas Q61H; conditions: TR-FRET tracer displacement, KRas Q61H
T9 construct: Biotinylated KRas (corresponding to amino acids 1-169, produced at Accelegan Inc.); biotin (biotinylated); purchased Accelegan Inc
T9 sequence (P01116 1-169 isoform P01116-2 Q61H): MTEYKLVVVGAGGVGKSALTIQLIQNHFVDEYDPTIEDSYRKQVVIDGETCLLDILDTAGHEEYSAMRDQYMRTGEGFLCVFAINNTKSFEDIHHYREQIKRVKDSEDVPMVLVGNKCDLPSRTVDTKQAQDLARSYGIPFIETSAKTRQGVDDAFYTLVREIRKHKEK

T1 sequence (P01116 1-169 isoform P01116-2 G12D): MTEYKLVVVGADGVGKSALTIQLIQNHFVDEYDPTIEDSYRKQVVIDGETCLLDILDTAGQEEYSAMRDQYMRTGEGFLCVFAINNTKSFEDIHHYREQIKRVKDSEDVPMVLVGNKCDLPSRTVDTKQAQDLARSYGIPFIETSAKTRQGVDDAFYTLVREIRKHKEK

| IC50 (KRas^G12D) [nM] | IC50 (KRas^G12R) [nM] | IC50 (KRas^G12V) [nM] | IC50 [1] [nM] | IC50 [2] [nM] | IC50 [3] [nM] | IC50 [4] [nM] | IC50 [5] [nM] | IC50 [6] [nM] | IC50 [7] [nM] | IC50 [8] [nM] | IC50 [9] [nM] | IC50 (KRas^WT) [nM] | IC50 (KRas^G12C) [nM] | IC50 (KRas^G12S) [nM] | IC50 (KRas^G12A) [nM] | IC50 (KRas^G13D) [nM] | IC50 (KRas^Q61H) [nM] | Structure (SMILES) |
| --- | --- | --- | --- | --- | --- | --- | --- | --- | --- | --- | --- | --- | --- | --- | --- | --- | --- | --- |
| < 2 | < 2 | < 2 | 0.1 | 80 | 1 | 2 | 1 | 1 | 2 | 1 | 1 | – | – | – | – | – | – | CCc1c(F)ccc2cc(O)cc(-c3ncc4c(N5CCC[C@@](C)(O)C5)nc(OC[C@@]56CCCN5C/C(=C\F)C6)nc4c3F)c12 [Example 791, (R)-1-(7-(8-ethyl-7-fluoro-3-hydroxynaphthalen-1-yl)-8-fluoro-2-(((S,Z)-2-(fluoromethylene)tetrahydro-1H-pyrrolizin-7a(5H)-yl)methoxy)pyrido[4,3-d]pyrimidin-4-yl)-3-methylpiperidin-3-ol] |
| 5 | 12 | 6 | 24 | > 10000 | 153 | 196 | 176 | 176 | 520 | 100 | – | 11 | 7 | 8 | 9 | 7 | 12 | C[C@@]1(O)CCCN(c2nc(OC[C@@]34CCCN3C[C@H](F)C4)nc3c(F)c(-c4c(C5CC5)c(Cl)cc5[nH]ncc45)ncc23)C1 [Example 880, (3R)-1-(7-(6-chloro-5-cyclopropyl-1H-indazol-4-yl)-8-fluoro-2-(((2R,7aS)-2-fluorotetrahydro-1H-pyrrolizin-7a(5H)-yl)methoxy)pyrido[4,3-d]pyrimidin-4-yl)-3-methylpiperidin-3-ol] |
| 2 | 8 | 3 | 521 | > 10000 | 677 | 1300 | > 10000 | 4460 | 7110 | 429 | – | 13 | 5 | 5 | 9 | 15 | 15 | CN(C)C(=O)c1cc2n(n1)CCCN(c1nc(OC[C@@]34CCCN3C[C@H](F)C4)nc3c(F)c(-c4c(C5CC5)c(Cl)cc5[nH]ncc45)ncc13)C2 [Example 882, 5-(7-(6-chloro-5-cyclopropyl-1H-indazol-4-yl)-8-fluoro-2-(((2R,7aS)-2-fluorotetrahydro-1H-pyrrolizin-7a(5H)-yl)methoxy)pyrido[4,3-d]pyrimidin-4-yl)-N,N-dimethyl-5,6,7,8-tetrahydro-4H-pyrazolo[1,5-a][1,4]diazepine-2-carboxamide] |
| – | – | – | – | – | 2 | 1 | 1 | 1 | 1 | 0.4 | 1 | – | – | – | – | – | – | CCc1c(F)ccc2cc(O)cc(-c3ncc4c(N5C[C@@H]6C[C@H](C5)[C@H](O)C6)nc(OC[C@@]56CCCN5C/C(=C\F)C6)nc4c3F)c12 [Example 942, (1R,5R,6R)-3-(7-(8-ethyl-7-fluoro-3-hydroxynaphthalen-1-yl)-8-fluoro-2-(((S,Z)-2-(fluoromethylene)tetrahydro-1H-pyrrolizin-7a(5H)-yl)methoxy)pyrido[4,3-d]pyrimidin-4-yl)-3-azabicyclo[3.2.1]octan-6-ol] |
| < 2 | – | < 2 | – | – | 2 | 6 | 6 | 3 | 6 | 1 | 1 | < 2 | < 2 | < 2 | – | – | – | C[C@@H]1C[C@@H]1c1c(Cl)cc(O)cc1-c1ncc2c(N3CCC[C@@](C)(O)C3)nc(OC[C@@]34CCCN3C/C(=C\F)C4)nc2c1F [Example 944, (R)-1-(7-(3-chloro-5-hydroxy-2-((1S,2R)-2-methylcyclopropyl)phenyl)-8-fluoro-2-(((S,Z)-2-(fluoromethylene)tetrahydro-1H-pyrrolizin-7a(5H)-yl)methoxy)pyrido[4,3-d]pyrimidin-4-yl)-3-methylpiperidin-3-ol] |

| Structure (SMILES) | IC50 (KRas^G12D) [nM] | IC50 (KRas^G12R) [nM] | IC50 (KRas^G12V) [nM] | IC50 [1] [nM] | IC50 [2] [nM] | IC50 [3] [nM] | IC50 [4] [nM] | IC50 [5] [nM] | IC50 [6] [nM] | IC50 [7] [nM] | IC50 [8] [nM] | IC50 [9] [nM] | IC50 (KRas^WT) [nM] | IC50 (KRas^G12C) [nM] | IC50 (KRas^G12S) [nM] | IC50 (KRas^G12A) [nM] | IC50 (KRas^G13D) [nM] | IC50 (KRas^Q61H) [nM] |
| --- | --- | --- | --- | --- | --- | --- | --- | --- | --- | --- | --- | --- | --- | --- | --- | --- | --- | --- |
| C[C@@H]1C[C@@H]1c1c(Cl)cc(O)cc1-c1ncc2c(N3CC4CCC(C3)N4)nc(OC[C@@]34CCCN3C/C(=C\F)C4)nc2c1F [Example 806, 3-(4-(3,8-diazabicyclo[3.2.1]octan-3-yl)-8-fluoro-2-(((S,Z)-2-(fluoromethylene)tetrahydro-1H-pyrrolizin-7a(5H)-yl)methoxy)pyrido[4,3-d]pyrimidin-7-yl)-5-chloro-4-(cis-2-methylcyclopropyl)phenol] | < 2 | – | 4 | 19 | – | 2 | 364 | 139 | 107 | 129 | 43 | 29 | 4 | 3 | 2 | – | – | – |
| C[C@@H]1C[C@@H]1c1c(Cl)cc(O)cc1-c1ncc2c(N3C[C@H]4CC[C@@H](C3)N4)nc(OC[C@@]34CCCN3C/C(=C\F)C4)nc2c1F [Example 946, 3-(4-((1R,5S)-3,8-diazabicyclo[3.2.1]octan-3-yl)-8-fluoro-2-(((S,Z)-2-(fluoromethylene)tetrahydro-1H-pyrrolizin-7a(5H)-yl)methoxy)pyrido[4,3-d]pyrimidin-7-yl)-5-chloro-4-((1S,2R)-2-methylcyclopropyl)phenol] | – | – | – | – | – | 8 | 847 | 984 | 494 | 628 | 212 | 229 | – | – | – | – | – | – |
